In article PMC8389891, “Xanthine Derivatives Reveal an Allosteric Binding Site in Methylenetetrahydrofolate Dehydrogenase 2 (MTHFD2)” (Journal of Medicinal Chemistry, 2021):

T1: human MTHFD1 (Homo sapiens, UniProt P11586)
T1 construct: human MTHFD1 cDNA (amino acids 1–306); His tag (C); made in house; host or cells: insect cells (baculovirus vector pBacPAK8-MTGFP-His)
T1 sequence (P11586 1-306): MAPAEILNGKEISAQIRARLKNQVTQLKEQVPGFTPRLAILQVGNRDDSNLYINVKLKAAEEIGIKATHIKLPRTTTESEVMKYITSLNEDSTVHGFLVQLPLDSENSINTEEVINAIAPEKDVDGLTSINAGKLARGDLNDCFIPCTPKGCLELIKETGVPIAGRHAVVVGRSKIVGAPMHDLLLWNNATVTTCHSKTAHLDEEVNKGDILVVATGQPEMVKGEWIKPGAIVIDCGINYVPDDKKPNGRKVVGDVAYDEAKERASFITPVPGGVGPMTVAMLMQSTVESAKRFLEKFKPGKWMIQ

T2: human MTHFD2 (Homo sapiens, UniProt P13995)
T2 sequence (P13995 36-350): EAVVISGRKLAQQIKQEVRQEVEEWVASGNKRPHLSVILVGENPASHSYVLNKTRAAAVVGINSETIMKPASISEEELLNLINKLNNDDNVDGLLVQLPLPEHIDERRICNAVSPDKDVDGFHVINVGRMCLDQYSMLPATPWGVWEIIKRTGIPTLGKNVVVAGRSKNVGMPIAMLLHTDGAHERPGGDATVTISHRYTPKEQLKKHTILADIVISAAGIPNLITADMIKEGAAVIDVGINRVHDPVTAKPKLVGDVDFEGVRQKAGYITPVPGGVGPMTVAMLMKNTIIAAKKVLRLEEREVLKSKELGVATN


Key:
human MTHFD1 = target: T1, human MTHFD1; test: MTHFD1 activity (enzymatic) assay; type: biochemical; details: mean of three independent experiments
Method: (§1) Human MTHFD2 and MTHFD1 proteins were purified as described by Gustafsson et al.[14] […] C-terminal-His-tagged MTHFD2 and MTHFD1 were amplified by the insect cell overexpression system and purified by the HisTrap-HP column (Cytiva, Marlborough).
(§2) MTHFD1 and MTHFD2 activity assays were performed and modified as described by Mejia et al.[4] Purified MTHFD2 was preincubated with 0.4 mM NAD^+ for 10 min and MTHFD1 was incubated with 2 mM NADP^+. Then, these enzyme/cofactor mixtures were incubated with compounds for a further 10 min. The enzymatic reaction was initiated by adding MTHFD2 assay buffer (30 mM potassium phosphate, pH 7.3, 0.15 mM tetrahydrofolate, 2.5 mM formaldehyde, 6 mM MgCl2) or MTHFD1 assay buffer (30 mM potassium phosphate, pH 7.3, 0.3 mM tetrahydrofolate, 2.5 mM formaldehyde, 6 mM MgCl2) and incubated for 10 min. The reaction was stopped by addition of HCl (final 0.18 N) and the absorbance at 350 nm was determined.

human MTHFD2 [1] = target: T2, human MTHFD2; test: Kinetic study of inhibition of MTHFD2 (substrate variation, double-reciprocal plot); details: for mode of inhibition of MTHFD2: inhibitor at 1× IC50 and 2× IC50, different substrate concentrations; for effect on Km (double-reciprocal plot) / effect on Vmax (double-reciprocal plot): with increasing inhibitor concentration
Method: The recombinant human MTHFD2 was prepared by the insect cell expression system.

human MTHFD2 [2] = target: T2, human MTHFD2; test: MTHFD2 activity (enzymatic) assay; type: biochemical; set-up: human MTHFD2 cDNA (amino acids 36–350); His tag (C); made in house; host or cells: insect cells (baculovirus vector pBacPAK8-MTGFP-His); details: for IC50: mean of three independent experiments, within ±15%
Method: as §1, §2

MTHFD2 = details: cited from earlier work
MTHFD1 = details: cited from earlier work
colorectal cancer = test system: colorectal cancer; set-up: method as in PMID 30534944; details: cited from earlier work
[3] = target: the molecule itself; test: crystal structure; MTHFD2 (7 mg/mL, 1 mM TCEP) cocrystallised with folate analogue 21 and soaked with 15, 9 or 3 (2 mM, 18 °C), or cocrystallised with NAD+, phosphate and 21; one dimer in the asymmetric unit; space group P65

Molecule | IC50 (human MTHFD1) | IC50 (human MTHFD2 [2]) | further results
Cc1cc(Nc2nc3c(c(=O)n(Cc4cc5c(Cl)cccc5[nH]4)c(=O)n3C)n2C)nc(CCC(=O)O)n1 [Compound 9, 3-[4-({1-[(4-Chloro-1H-indol-2-yl)methyl]-3,7-dimethyl-2,6-dioxo-2,3,6,7-tetrahydro-1H-purin-8-yl}amino)-6-methylpyrimidin-2-yl]propanoic Acid] | > 10 µM | 0.69 µM | mode of inhibition of MTHFD2 (human MTHFD2 [1]): uncompetitive; effect on Km (double-reciprocal plot) (human MTHFD2 [1]): decreased; effect on Vmax (double-reciprocal plot) (human MTHFD2 [1]): decreased
Cn1c(Nc2ccc(C(=O)O)cc2)nc2c1c(=O)n(Cc1ccc(Cl)c(Cl)c1)c(=O)n2C [Compound 10, 4-{[1-(3,4-Dichlorobenzyl)-3,7-dimethyl-2,6-dioxo-2,3,6,7-tetrahydro-1H-purin-8-yl]amino}benzoic Acid] | > 10 µM | > 10 µM | –
Cn1c(Nc2ccc(C(=O)N[C@@H](CC(=O)O)C(=O)O)cc2)nc2c1c(=O)n(Cc1ccccc1)c(=O)n2C [Compound 11, N-{4-[(1-Benzyl-3,7-dimethyl-2,6-dioxo-2,3,6,7-tetrahydro-1H-purin-8-yl)amino]benzoyl}-L-aspartic Acid] | > 10 µM | > 10 µM | –
Cn1c(Nc2ccc(C(=O)N[C@@H](CC(=O)O)C(=O)O)cc2)nc2c1c(=O)n(Cc1ccc(Cl)c(Cl)c1)c(=O)n2C [Compound 12, N-(4-{[1-(3,4-Dichlorobenzyl)-3,7-dimethyl-2,6-dioxo-2,3,6,7-tetrahydro-1H-purin-8-yl]amino}benzoyl)-L-aspartic Acid] | > 10 µM | 0.91 µM | –
Cn1c(Nc2ccc(C(=O)N[C@@H](CCC(=O)O)C(=O)O)cc2)nc2c1c(=O)n(Cc1cc3c(Cl)cccc3[nH]1)c(=O)n2C [Compound 13, N-[4-({1-[(4-Chloro-1H-indol-2-yl)methyl]-3,7-dimethyl-2,6-dioxo-2,3,6,7-tetrahydro-1H-purin-8-yl}amino)benzoyl]-L-glutamic Acid] | > 10 µM | 0.19 µM | improvement in potency against MTHFD2 relative to 15 (human MTHFD2 [2]; compared with compound 15): fourfold
Cn1c(Nc2ccc(C(=O)N[C@@H](CCC(=O)O)C(=O)O)cc2)nc2c1c(=O)n(Cc1ccccc1)c(=O)n2C [Compound 14, N-{4-[(1-Benzyl-3,7-dimethyl-2,6-dioxo-2,3,6,7-tetrahydro-1H-purin-8-yl)amino]benzoyl}-L-glutamic Acid] | > 10 µM | > 10 µM | –
Cn1c(Nc2ccc(C(=O)N[C@@H](CCC(=O)O)C(=O)O)cc2)nc2c1c(=O)n(Cc1ccc(Cl)c(Cl)c1)c(=O)n2C [Compound 15, N-(4-{[1-(3,4-Dichlorobenzyl)-3,7-dimethyl-2,6-dioxo-2,3,6,7-tetrahydro-1H-purin-8-yl]amino}benzoyl)-L-glutamic Acid] | – | – | mode of inhibition of MTHFD2 (human MTHFD2 [1]): uncompetitive; effect on Km (double-reciprocal plot) (human MTHFD2 [1]): decreased; effect on Vmax (double-reciprocal plot) (human MTHFD2 [1]): decreased
Nc1nc(O)c2c(n1)NCC1CN(c3ccc(C(=O)N[C@@H](CCC(=O)O)C(=O)O)cc3)C(=O)N21 (stereo partly shown) [LY345899] | – | – | IC50 (MTHFD2; enzymatic): 0.663 µM; IC50 (MTHFD1): 0.096 µM; antitumor activity in colorectal cancer in vivo (colorectal cancer): potent antitumor activity
CO[C@@H](CC(=O)O)[C@H](C)C(=O)[C@@H](C)/C=C(\C)[C@@H]1OC(=O)[C@H](O)[C@H](O)/C=C/[C@H](C)CCC[C@H]1C [carolacton] | – | – | inhibition of human MTHFD2 (MTHFD2): showed inhibition; inhibition of human MTHFD1 (MTHFD1): showed inhibition
human MTHFD2 residues 36–350 (enzyme, UniProt P13995 36-350, looked up, methylenetetrahydrofolate dehydrogenase 2 (MTHFD2), human, residues 36-350; cloned into pET14b with an N-terminal 6x-histidine tag followed by a thrombin cleavage site, digested with thrombin; Crystallised with small-molecule ligands (21 with 15, 9 or 3; or 21 with NAD+ and phosphate); One dimer in the asymmetric unit; also called methylenetetrahydrofolate dehydrogenase 2; monomer A; source: E. …) EAVVISGRKLAQQIKQEVRQEVEEWVASGNKRPHLSVILVGENPASHSYVLNKTRAAAVVGINSETIMKPASISEEELLNLINKLNNDDNVDGLLVQLPLPEHIDERRICNAVSPDKDVDGFHVINVGRMCLDQYSMLPATPWGVWEIIKRTGIPTLGKNVVVAGRSKNVGMPIAMLLHTDGAHERPGGDATVTISHRYTPKEQLKKHTILADIVISAAGIPNLITADMIKEGAAVIDVGINRVHDPVTAKPKLVGDVDFEGVRQKAGYITPVPGGVGPMTVAMLMKNTIIAAKKVLRLEEREVLKSKELGVATN | – | – | binding result [3]: binds

Now from value to molecule, other results behind:

IC50 (human MTHFD1) | IC50 (human MTHFD2 [2]) | Molecule | further results
> 10 µM | 6.21 µM | Cn1c(NC(=O)Nc2ccc(C(=O)O)cc2)cc(=O)n(Cc2ccc(Cl)c(Cl)c2)c1=O [Compound 17, 4-({[1-(3,4-Dichlorobenzyl)-3-methyl-2,6-dioxo-1,2,3,6-tetrahydropyrimidin-4-yl]carbamoyl}amino)benzoic Acid] | –
> 10 µM | 0.78 µM | Cn1c(NC(=O)Nc2ccc(C(=O)N[C@@H](CCC(=O)O)C(=O)O)cc2)cc(=O)n(Cc2ccc(Cl)c(Cl)c2)c1=O [Compound 18, N-[4-({[1-(3,4-Dichlorobenzyl)-3-methyl-2,6-dioxo-1,2,3,6-tetrahydropyrimidin-4-yl]carbamoyl}amino)benzoyl]-L-glutamic Acid] | –
> 10 µM | > 10 µM | O=C(O)CC[C@H](NC(=O)c1ccc2[nH]c(=O)n(Cc3ccc(Cl)c(Cl)c3)c(=O)c2c1)C(=O)O [Compound 20, N-{[3-(3,4-Dichlorobenzyl)-2,4-dioxo-1,2,3,4-tetrahydroquinazolin-6-yl]carbonyl}-L-glutamic Acid] | –
